Measured values published in ChEMBL document CHEMBL4732047, “New imidazopyridines with phosphodiesterase 4 and 7 inhibitory activity and their efficacy in animal models of inflammatory and autoimmune diseases” (Eur J Med Chem, 2021).
One block for each molecule: values may come before it. Activity calls are given as the source filed them. The calls are words filed in the database; no cut-off is given here.

What was measured:
[1] = biological target: High affinity 3',5'-cyclic-AMP phosphodiesterase 7A (Homo sapiens, UniProt Q13946); assay: Inhibition of human recombinant PDE7A using cAMP as substrate incubated for 20 mins measured by Kinase Glo reagent based microplate reader assay
Sequence of High affinity 3',5'-cyclic-AMP phosphodiesterase 7A (Q13946 whole entry): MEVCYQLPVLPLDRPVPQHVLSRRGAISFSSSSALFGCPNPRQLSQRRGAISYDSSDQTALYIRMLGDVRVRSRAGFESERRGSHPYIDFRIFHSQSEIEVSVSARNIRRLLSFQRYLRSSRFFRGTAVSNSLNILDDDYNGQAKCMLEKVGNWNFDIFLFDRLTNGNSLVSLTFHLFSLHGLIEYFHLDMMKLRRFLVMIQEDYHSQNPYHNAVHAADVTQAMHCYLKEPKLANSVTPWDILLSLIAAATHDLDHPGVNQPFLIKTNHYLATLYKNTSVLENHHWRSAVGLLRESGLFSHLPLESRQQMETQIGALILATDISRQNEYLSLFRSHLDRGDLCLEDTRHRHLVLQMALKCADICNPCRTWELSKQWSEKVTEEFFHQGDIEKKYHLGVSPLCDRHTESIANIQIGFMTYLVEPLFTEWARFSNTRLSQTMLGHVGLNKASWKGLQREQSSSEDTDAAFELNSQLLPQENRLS

[2] = biological target: 3',5'-cyclic-AMP phosphodiesterase 4B (Homo sapiens, UniProt Q07343); assay: Inhibition of human recombinant PDE4B using cAMP as substrate incubated for 20 mins measured by Kinase Glo reagent based microplate reader assay
Sequence of 3',5'-cyclic-AMP phosphodiesterase 4B (Q07343 whole entry): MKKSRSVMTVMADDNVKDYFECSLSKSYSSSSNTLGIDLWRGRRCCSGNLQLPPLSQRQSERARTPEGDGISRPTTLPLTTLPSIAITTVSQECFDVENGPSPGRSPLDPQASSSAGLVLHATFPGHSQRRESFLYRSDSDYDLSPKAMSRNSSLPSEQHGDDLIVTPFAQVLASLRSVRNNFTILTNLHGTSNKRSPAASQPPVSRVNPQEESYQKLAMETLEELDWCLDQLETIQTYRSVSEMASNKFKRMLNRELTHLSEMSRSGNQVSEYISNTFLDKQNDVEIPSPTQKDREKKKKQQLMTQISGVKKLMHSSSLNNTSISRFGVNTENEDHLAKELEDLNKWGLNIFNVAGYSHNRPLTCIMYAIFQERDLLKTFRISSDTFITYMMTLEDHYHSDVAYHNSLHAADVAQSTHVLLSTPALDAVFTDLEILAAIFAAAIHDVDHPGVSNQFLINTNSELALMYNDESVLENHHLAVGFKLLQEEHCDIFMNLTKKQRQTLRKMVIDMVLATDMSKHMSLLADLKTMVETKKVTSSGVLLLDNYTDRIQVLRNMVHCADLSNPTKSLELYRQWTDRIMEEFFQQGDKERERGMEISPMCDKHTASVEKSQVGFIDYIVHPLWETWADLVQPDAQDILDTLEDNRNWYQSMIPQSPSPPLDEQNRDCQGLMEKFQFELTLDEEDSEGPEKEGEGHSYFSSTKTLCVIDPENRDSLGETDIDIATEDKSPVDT

[3] = biological target: cGMP-specific 3',5'-cyclic phosphodiesterase (Homo sapiens, UniProt O76074); assay: Inhibition of human recombinant PDE5A using cGMP as substrate incubated for 20 mins measured by Kinase Glo reagent based microplate reader assay
[4] = biological target: 3',5'-cyclic-AMP phosphodiesterase 4D (Homo sapiens, UniProt Q08499); assay: Inhibition of human recombinant PDE4D using cAMP as substrate incubated for 20 mins measured by Kinase Glo reagent based microplate reader assay
Sequence of 3',5'-cyclic-AMP phosphodiesterase 4D (Q08499 whole entry): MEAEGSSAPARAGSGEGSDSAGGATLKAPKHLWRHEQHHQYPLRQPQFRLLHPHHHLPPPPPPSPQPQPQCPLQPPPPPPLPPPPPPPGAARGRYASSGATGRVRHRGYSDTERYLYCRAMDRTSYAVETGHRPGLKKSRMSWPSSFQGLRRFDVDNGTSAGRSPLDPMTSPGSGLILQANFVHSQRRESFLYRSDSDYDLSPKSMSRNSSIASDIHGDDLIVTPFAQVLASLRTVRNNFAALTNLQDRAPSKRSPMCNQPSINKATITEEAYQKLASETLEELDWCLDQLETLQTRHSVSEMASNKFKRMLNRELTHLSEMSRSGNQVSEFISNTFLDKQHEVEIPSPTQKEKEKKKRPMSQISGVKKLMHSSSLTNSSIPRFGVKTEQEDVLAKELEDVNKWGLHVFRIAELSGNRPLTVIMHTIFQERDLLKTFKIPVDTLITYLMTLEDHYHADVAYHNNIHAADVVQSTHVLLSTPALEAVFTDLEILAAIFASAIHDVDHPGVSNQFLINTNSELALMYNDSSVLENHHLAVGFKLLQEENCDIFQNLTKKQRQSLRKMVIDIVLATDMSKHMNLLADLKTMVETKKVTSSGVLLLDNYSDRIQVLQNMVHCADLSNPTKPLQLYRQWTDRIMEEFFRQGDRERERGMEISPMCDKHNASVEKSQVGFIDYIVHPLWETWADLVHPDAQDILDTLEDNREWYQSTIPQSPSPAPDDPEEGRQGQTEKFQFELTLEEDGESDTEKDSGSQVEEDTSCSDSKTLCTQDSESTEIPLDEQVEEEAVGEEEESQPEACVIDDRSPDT

[5] = biological target: cGMP-dependent 3',5'-cyclic phosphodiesterase (Homo sapiens, UniProt O00408); assay: Inhibition of human recombinant PDE2A using cGMP as substrate incubated for 20 mins measured by Kinase Glo reagent based microplate reader assay
[6] = biological target: cAMP and cAMP-inhibited cGMP 3',5'-cyclic phosphodiesterase 10A (Homo sapiens, UniProt Q9Y233); assay: Inhibition of human recombinant PDE10A using cAMP as substrate incubated for 20 mins measured by Kinase Glo reagent based microplate reader assay
Sequence of cAMP and cAMP-inhibited cGMP 3',5'-cyclic phosphodiesterase 10A (Q9Y233 whole entry): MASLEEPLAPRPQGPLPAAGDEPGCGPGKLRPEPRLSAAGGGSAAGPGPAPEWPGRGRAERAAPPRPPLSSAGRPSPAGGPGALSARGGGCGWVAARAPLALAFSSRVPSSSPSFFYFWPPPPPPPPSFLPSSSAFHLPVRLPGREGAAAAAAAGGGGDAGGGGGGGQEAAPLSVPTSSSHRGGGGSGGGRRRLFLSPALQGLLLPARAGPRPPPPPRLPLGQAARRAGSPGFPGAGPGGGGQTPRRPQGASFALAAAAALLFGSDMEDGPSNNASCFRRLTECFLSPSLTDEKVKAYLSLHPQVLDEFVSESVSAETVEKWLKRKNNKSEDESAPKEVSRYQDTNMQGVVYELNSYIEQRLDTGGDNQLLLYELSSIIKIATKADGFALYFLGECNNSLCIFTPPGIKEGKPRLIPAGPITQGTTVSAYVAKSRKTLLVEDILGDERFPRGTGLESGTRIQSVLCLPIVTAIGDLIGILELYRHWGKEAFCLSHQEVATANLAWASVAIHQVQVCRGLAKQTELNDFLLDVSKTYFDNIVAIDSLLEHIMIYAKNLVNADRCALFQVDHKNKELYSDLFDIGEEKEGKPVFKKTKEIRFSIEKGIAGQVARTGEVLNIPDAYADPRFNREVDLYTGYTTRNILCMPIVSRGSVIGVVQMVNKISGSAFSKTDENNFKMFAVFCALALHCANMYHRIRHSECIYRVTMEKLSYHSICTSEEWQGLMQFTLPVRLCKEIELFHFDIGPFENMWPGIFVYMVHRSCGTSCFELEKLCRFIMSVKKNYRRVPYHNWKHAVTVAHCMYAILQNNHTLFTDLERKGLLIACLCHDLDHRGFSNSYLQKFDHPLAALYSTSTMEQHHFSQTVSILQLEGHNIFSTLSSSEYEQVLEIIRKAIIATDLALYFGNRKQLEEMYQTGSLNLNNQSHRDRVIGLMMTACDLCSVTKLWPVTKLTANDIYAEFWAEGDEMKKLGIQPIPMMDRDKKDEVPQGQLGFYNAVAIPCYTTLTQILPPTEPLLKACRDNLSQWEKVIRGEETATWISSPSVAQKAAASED

[7] = tested on: Mus musculus; assay: Hepatoprotective activity in ConA-induced BALB/c hepatitis mouse model assessed as decrease in serum IL-6 level at 50 mg/kg, ip administration and measured after 8 hrs relative to control; assay type: functional, organism-based
[8] = biological target: cGMP-inhibited 3',5'-cyclic phosphodiesterase 3A (Homo sapiens, UniProt Q14432); assay: Inhibition of human recombinant PDE3A using cAMP as substrate incubated for 20 mins measured by Kinase Glo reagent based microplate reader assay
Sequence of cGMP-inhibited 3',5'-cyclic phosphodiesterase 3A (Q14432 whole entry): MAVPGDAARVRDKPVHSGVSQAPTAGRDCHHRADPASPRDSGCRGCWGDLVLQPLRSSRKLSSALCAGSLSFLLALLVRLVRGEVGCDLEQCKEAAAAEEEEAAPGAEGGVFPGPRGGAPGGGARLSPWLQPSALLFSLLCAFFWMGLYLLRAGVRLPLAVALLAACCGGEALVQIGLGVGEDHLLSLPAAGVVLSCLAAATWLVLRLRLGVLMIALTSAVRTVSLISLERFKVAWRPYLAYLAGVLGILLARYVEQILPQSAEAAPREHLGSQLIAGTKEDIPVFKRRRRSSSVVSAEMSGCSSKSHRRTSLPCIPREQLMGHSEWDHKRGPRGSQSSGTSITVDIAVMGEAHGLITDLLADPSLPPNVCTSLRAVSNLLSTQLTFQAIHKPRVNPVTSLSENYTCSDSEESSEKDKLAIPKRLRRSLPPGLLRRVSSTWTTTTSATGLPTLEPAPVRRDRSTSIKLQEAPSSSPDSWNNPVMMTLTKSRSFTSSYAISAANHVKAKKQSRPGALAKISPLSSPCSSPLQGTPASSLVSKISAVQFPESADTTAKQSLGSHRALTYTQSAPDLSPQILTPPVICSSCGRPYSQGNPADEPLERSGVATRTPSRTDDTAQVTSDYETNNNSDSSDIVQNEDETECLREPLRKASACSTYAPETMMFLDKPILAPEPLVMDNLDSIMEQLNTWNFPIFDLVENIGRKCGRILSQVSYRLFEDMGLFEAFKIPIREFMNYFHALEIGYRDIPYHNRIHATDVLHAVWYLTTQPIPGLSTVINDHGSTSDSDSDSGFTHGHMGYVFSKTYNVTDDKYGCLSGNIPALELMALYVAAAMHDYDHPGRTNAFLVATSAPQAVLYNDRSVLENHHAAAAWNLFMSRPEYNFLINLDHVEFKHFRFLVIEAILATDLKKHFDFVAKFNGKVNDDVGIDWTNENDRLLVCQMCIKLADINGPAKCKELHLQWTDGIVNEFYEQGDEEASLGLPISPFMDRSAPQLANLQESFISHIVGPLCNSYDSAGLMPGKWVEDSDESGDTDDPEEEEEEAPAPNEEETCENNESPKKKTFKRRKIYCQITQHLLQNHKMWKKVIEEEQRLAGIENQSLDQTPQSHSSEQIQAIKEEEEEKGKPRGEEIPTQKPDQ

[9] = biological target: Dual specificity calcium/calmodulin-dependent 3',5'-cyclic nucleotide phosphodiesterase 1B (Homo sapiens, UniProt Q01064); assay: Inhibition of human recombinant PDE1B using cAMP as substrate incubated for 20 mins measured by Kinase Glo reagent based microplate reader assay
Sequence of Dual specificity calcium/calmodulin-dependent 3',5'-cyclic nucleotide phosphodiesterase 1B (Q01064 whole entry): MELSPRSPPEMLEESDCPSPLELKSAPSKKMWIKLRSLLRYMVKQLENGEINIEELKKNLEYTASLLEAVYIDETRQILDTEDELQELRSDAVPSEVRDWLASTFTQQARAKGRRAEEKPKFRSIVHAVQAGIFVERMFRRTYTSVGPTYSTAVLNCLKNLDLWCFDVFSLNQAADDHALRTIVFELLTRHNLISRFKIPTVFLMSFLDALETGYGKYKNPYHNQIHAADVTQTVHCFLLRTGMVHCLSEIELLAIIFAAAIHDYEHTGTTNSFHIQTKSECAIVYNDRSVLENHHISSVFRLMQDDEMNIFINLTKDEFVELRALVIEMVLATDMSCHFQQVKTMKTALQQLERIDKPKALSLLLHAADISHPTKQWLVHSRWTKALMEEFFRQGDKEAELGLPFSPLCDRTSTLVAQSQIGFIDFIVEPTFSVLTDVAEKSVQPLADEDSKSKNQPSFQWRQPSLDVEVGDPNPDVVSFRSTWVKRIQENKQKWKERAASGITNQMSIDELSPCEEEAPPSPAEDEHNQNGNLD

[10] = tested on: Mus musculus; assay: Hepatoprotective activity in ConA-induced BALB/c hepatitis mouse model assessed as decrease in serum IL-6 level at 10 mg/kg, ip administration and measured after 8 hrs relative to control; assay type: functional, organism-based
[11] = tested on: Rattus norvegicus; assay: Antiinflammatory activity in collagen-induced arthritis Lewis rat model assessed as decrease in paw swelling at 20 mg/kg, ip once daily administered on day 20 after collagen treatment and treated until day 40 by macroscopic observation analysis; assay type: functional, organism-based
[12] = Apparent volume of distribution during terminal phase in female Lewis rat at 10 mg/kg, iv; assay type: ADME, organism-based; settings: in vivo
[13] = Tmax in male Wistar rat at 10 mg/kg, ip; assay type: ADME, organism-based; settings: in vivo
[14] = Selectivity index, ratio of IC50 for inhibition of human recombinant PDE4D to IC50 for inhibition of human recombinant PDE4B
[15] = Apparent volume of distribution during terminal phase in male Wistar rat at 10 mg/kg, ip; assay type: ADME, organism-based; settings: in vivo, read-out: Vz/F
[16] = Brain to serum concentration ratio in C57BL/6 mouse at 50 mg/kg, ip measured after 15 mins; assay type: ADME, organism-based
[17] = tested on: Mus musculus; assay: Hepatoprotective activity in ConA-induced BALB/c hepatitis mouse model assessed as decrease in serum alanine aminotransferase level at 50 mg/kg, ip administration and measured after 8 hrs relative to control; assay type: functional, organism-based
[18] = tested on: Rattus norvegicus; assay: Antiinflammatory activity in LPS-induced Wistar rat endotoxemia model assessed as decrease in plasma TNFalpha level at 20 mg/kg, ip measured after 2 hr; assay type: functional; set-up: scale not given: the % may be the effect or the level left
[19] = AUC in female Lewis rat at 10 mg/kg, iv; assay type: ADME, organism-based; set-up: dose 10 mg/kg; settings: in vivo
[20] = Cmax in male Wistar rat at 10 mg/kg, ip; assay type: ADME, organism-based; set-up: route intraperitoneal, dose 10 mg/kg; settings: in vivo
[21] = Selectivity index, ratio of IC50 for inhibition of human recombinant PDE3A to IC50 for inhibition of human recombinant PDE4B
[22] = tested on: Rattus norvegicus; assay: Antiinflammatory activity in LPS-induced Wistar rat endotoxemia model assessed as decrease in plasma TNFalpha level at 20 mg/kg, ip measured after 1 hr; assay type: functional; set-up: scale not given: the % may be the effect or the level left
[23] = AUC in male Wistar rat at 10 mg/kg, ip; assay type: ADME, organism-based; set-up: dose 10 mg/kg; settings: in vivo
[24] = Elimination half life in Wistar rat; assay type: ADME; settings: in vivo, read-out: beta t1/2
[25] = tested on: Mus musculus; assay: Hepatoprotective activity in ConA-induced BALB/c hepatitis mouse model assessed as decrease in serum aspartate aminotransferase level at 10 mg/kg, ip administration and measured after 8 hrs relative to control; assay type: functional, organism-based
[26] = Cmax in female Lewis rat at 10 mg/kg, iv; assay type: ADME, organism-based; set-up: route intravenous, dose 10 mg/kg; settings: in vivo
[27] = tested on: Mus musculus; assay: Hepatoprotective activity in ConA-induced BALB/c hepatitis mouse model assessed as decrease in serum alanine aminotransferase level at 10 mg/kg, ip administration and measured after 8 hrs relative to control; assay type: functional, organism-based
[28] = tested on: Mus musculus; assay: Immunosuppressive activity in MOG (35 to 55 residues) toxin-induced experimental autoimmune encephalomyelitis C57BL/6 mouse model assessed reduction in disease onset at 50 mg/kg, ip; assay type: functional, organism-based
[29] = tested on: Mus musculus; assay: Immunosuppressive activity in MOG (35 to 55 residues) toxin-induced experimental autoimmune encephalomyelitis C57BL/6 mouse model assessed as reduction in white matter vacuolation in cerebellum at 50 mg/kg, ip relative to untreated control; assay type: functional, organism-based
[30] = Tmax in female Lewis rat at 10 mg/kg, iv; assay type: ADME, organism-based; settings: in vivo
[31] = Elimination half life in female Lewis rat at 10 mg/kg, iv; assay type: ADME, organism-based; settings: in vivo, read-out: beta t1/2
[32] = Clearance in female Lewis rat at 10 mg/kg, iv; assay type: ADME, organism-based; settings: in vivo
[33] = tested on: Mus musculus; assay: Immunosuppressive activity in MOG (35 to 55 residues) toxin-induced experimental autoimmune encephalomyelitis C57BL/6 mouse model assessed decrease in polymorphonuclear leukocytes infiltration into spinal cored at 50 mg/kg, ip relative to untreated control; assay type: functional, organism-based
[34] = Drug uptake in C57BL/6 mouse brain at 50 mg/kg, ip measured up to 60 mins; assay type: ADME, organism-based; settings: read-out: Drug uptake
[35] = tested on: Mus musculus; assay: Immunosuppressive activity in MOG (35 to 55 residues) toxin-induced experimental autoimmune encephalomyelitis C57BL/6 mouse model assessed decrease in macrophages infiltration into spinal cored at 50 mg/kg, ip relative to untreated control; assay type: functional, organism-based
[36] = tested on: Rattus norvegicus; assay: Antiinflammatory activity in LPS-induced Wistar rat endotoxemia model assessed as decrease in plasma TNFalpha level at 20 mg/kg, ip measured after 1.5 hr; assay type: functional; set-up: scale not given: the % may be the effect or the level left
[37] = Clearance in male Wistar rat at 10 mg/kg, ip; assay type: ADME, organism-based; settings: in vivo
[38] = tested on: Mus musculus; assay: Hepatoprotective activity in ConA-induced BALB/c hepatitis mouse model assessed as decrease in serum IFNgamma level at 10 mg/kg, ip administration and measured after 8 hrs relative to control; assay type: functional, organism-based
[39] = tested on: Mus musculus; assay: Immunosuppressive activity in MOG (35 to 55 residues) toxin-induced experimental autoimmune encephalomyelitis female C57BL/6 mouse model assessed as reduction in clinical scores at 50 mg/kg, ip administered […] once daily starting from day 1 post immunization and measured 15 days; assay type: functional, organism-based; settings: time 15.0 day
[40] = tested on: Mus musculus; assay: Hepatoprotective activity in ConA-induced BALB/c hepatitis mouse model assessed as decrease in serum aspartate aminotransferase level at 50 mg/kg, ip administration and measured after 8 hrs relative to control; assay type: functional, organism-based
[41] = tested on: Mus musculus; assay: Hepatoprotective activity in ConA-induced BALB/c hepatitis mouse model assessed as decrease in serum IFNgamma level at 50 mg/kg, ip administration and measured after 8 hrs relative to control; assay type: functional, organism-based
[42] = Elimination half life in male Wistar rat at 10 mg/kg, ip; assay type: ADME, organism-based; settings: in vivo, read-out: beta t1/2
[43] = Brain to serum concentration ratio in C57BL/6 mouse at 50 mg/kg, ip measured after 60 mins; assay type: ADME, organism-based
[44] = Brain to serum concentration ratio in C57BL/6 mouse at 50 mg/kg, ip measured after 5 mins; assay type: ADME, organism-based
[45] = tested on: Rattus norvegicus; assay: Antiinflammatory activity in LPS-induced Wistar rat endotoxemia model assessed as decrease in plasma TNFalpha level at 5 mg/kg, ip measured after 1 hr; assay type: functional; set-up: scale not given: the % may be the effect or the level left
[46] = tested on: Rattus norvegicus; assay: Antiinflammatory activity in LPS-induced Wistar rat endotoxemia model assessed as decrease in plasma TNFalpha level at 5 mg/kg, ip measured after 1.5 hr; assay type: functional; set-up: scale not given: the % may be the effect or the level left
[47] = tested on: Rattus norvegicus; assay: Antiinflammatory activity in LPS-induced Wistar rat endotoxemia model assessed as decrease in plasma TNFalpha level at 5 mg/kg, ip measured after 2 hr; assay type: functional; set-up: scale not given: the % may be the effect or the level left

Structure (SMILES): CCCCCn1c(-c2ccc(OC)cc2)nc2c(N)ccnc21
IC50 [1]: > 200 µM
IC50 [2]: 41.5 µM

Structure (SMILES): CCCCCn1c(-c2ccco2)nc2c(NCCCOC)nccc21
IC50 [1]: 83.3 µM
IC50 [2]: 12.6 µM

Structure (SMILES): CCCCCn1c(-c2ccccc2)nc2c(NCc3ccccc3)ccnc21
IC50 [1]: > 200 µM
IC50 [2]: 16.9 µM

Structure (SMILES): CCCCCn1c(-c2ccco2)nc2c(N(C)CCCO)ccnc21
IC50 [1]: 18.8 µM
IC50 [2]: 18 µM

Structure (SMILES): CCCCCn1c(-c2ccco2)nc2c(NCCOC)ccnc21
IC50 [1]: > 200 µM
IC50 [2]: 9.77 µM

Structure (SMILES): CCCCCn1c(-c2ccccc2)nc2c(NCCCO)ccnc21
IC50 [1]: > 200 µM
IC50 [2]: 23.2 µM

Structure (SMILES): CCOC(=O)C1=C[C@]2(CC)CCCN3CCc4c(n1c1ccccc41)[C@@H]32 [VINPOCETINE]
IC50 [9]: 7.99 µM

Structure (SMILES): OCCCNc1ccnc2c1nc(-c1ccco1)n2C1CCCC1
Activity [10]: Active
Activity [11]: Active
Vz/F [12]: 1.85 L/kg
IC50 [3]: 2.71 µM
Tmax [13]: 15 min
Ratio IC50 [14]: > 10
Vd/F [15]: 3.92 L/kg
Kp at […] [16]: 5.87
Activity [17]: Active
Activity [18]: 44%
AUC [19]: 2530 ng·h/mL
Cmax [20]: 1940 ng/mL
IC50 [4]: 35.6 µM
Ratio IC50 [21]: > 10
Activity [22]: 49%
AUC [23]: 1230 ng·h/mL
half-life [24]: 30 min
Activity [25]: Active
IC50 [5]: 40.7 µM
Cmax [26]: 10600 ng/mL
Activity [27]: Active
Activity [28]: Active
Activity [29]: Active
Tmax [30]: 0 h
half-life [31]: 19.5 min
clearance [32]: 70 mL/min/kg
IC50 [6]: 5.75 µM
Activity [33]: Active
concentration at 1 h [34]: ≥ 830 ng/mL
Activity [35]: Active
Activity [36]: 51%
CL/F [37]: 140 mL/min/kg
Activity [38]: Active
Activity [7]: Active
IC50 [1]: 88 µM
Activity [39]: Active
IC50 [8]: 47.3 µM
IC50 [9]: 8.45 µM
Activity [40]: Active
Activity [41]: Active
half-life [42]: 20.1 min
Kp at 1 h [43]: 4.34
IC50 [2]: 2.53 µM
Kp at 5 min [44]: 2.96

Structure (SMILES): CCCCCn1c(-c2ccccc2)nc2c(N)ccnc21
IC50 [1]: > 200 µM
IC50 [2]: 29 µM

Structure (SMILES): COc1ccc(C2CNC(=O)C2)cc1OC1CCCC1 (stereo not given) [ROLIPRAM]
Activity [10]: Active
Activity [45]: 85.6%
Activity [17]: Active
Activity [25]: Active
Activity [27]: Active
Activity [46]: 73.5%
Activity [38]: Active
Activity [47]: 77.1%
Activity [7]: Active
Activity [40]: Active
Activity [41]: Active

Structure (SMILES): CCCCCn1c(-c2ccccc2)nc2c(NCCc3cccs3)nccc21
IC50 [1]: > 200 µM
IC50 [2]: 15.6 µM

Structure (SMILES): CCCCCn1c(-c2ccco2)nc2c(NCCCO)ccnc21
IC50 [1]: 63.6 µM
IC50 [2]: 49.7 µM

More lines, in order of falling IC50 [2], values ahead:

IC50 [1]: > 200 µM
IC50 [2]: 8.34 µM
Structure (SMILES): CCCCCn1c(-c2ccco2)nc2c(NCc3ccccc3)nccc21

IC50 [1]: > 200 µM
IC50 [2]: 7.09 µM
Structure (SMILES): CCCCCn1c(-c2ccccc2)nc2c(NCCc3cccs3)ccnc21

IC50 [3]: 2.91 µM
IC50 [4]: 25.8 µM
IC50 [5]: 21.8 µM
IC50 [6]: 2.95 µM
IC50 [1]: 7.24 µM
IC50 [8]: 9.92 µM
IC50 [9]: 2.3 µM
IC50 [2]: 3.48 µM
Structure (SMILES): CCCCCn1c(-c2ccco2)nc2c(N(C)CCCO)nccc21
Activity [7]: inactive

IC50 [1]: > 200 µM
IC50 [2]: 2.8 µM
Structure (SMILES): c1coc(-c2nc3c(NCCc4cccs4)nccc3n2C2CCCC2)c1

IC50 [2]: 0.042 µM
Structure (SMILES): CNc1nc(C(F)(F)F)nc2c1ncn2Cc1ccccc1F
